Results from US9527885B2, “Hepatitis C virus inhibitors” (BRISTOL-MYERS SQUIBB COMPANY, priority 2011, dated 2016).
Like-named read-outs stand apart in the source and are kept apart here.

Columns and labels:
[1] = system: HCV genotype 1a (H77 strain) replicon in HUH-7 cells; assay: HCV replicon luciferase reporter assay, genotype 1a; assay type: cell-based; details: Hepatitis C virus, Huh-7, 72 h, 3 days incubation, read-out: LE_1a (EC50, range)
Procedure, shortened: (§1)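 Twenty-point, threefold compound titrations (0.5% DMSO) were incubated 3 days at 37 °C with 3.0×10^3 HUH-7 cells/well in 4% FCS. The cells stably carried luciferase replicons: genotype 1b Con1 (S1179I) or 1a H77 (NS3 P1496L, NS5A S2204I). Renilla signal was read after 2 h with 7.5 μM EnduRen, and EC50 was taken from a four-parameter logistic fit. Cytotoxicity (CC50) was measured by Cell Titer-Blue, 8 h.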

[2] = system: HCV genotype 1b (Con1) replicon in HUH-7 cells; assay: HCV replicon luciferase reporter assay, genotype 1b; assay type: cell-based; details: Hepatitis C virus, 72 h, 3 days incubation, read-out: LE_1b (EC50, range)
Procedure, shortened: as §1

[3] = HCV genotype 1a replicon luciferase, class symbols
[4] = HCV genotype 1b replicon luciferase, class symbols
[5] = HCV genotype 1a replicon luciferase, range class
[6] = HCV genotype 1b replicon luciferase, range class

SMILES	EC50 [1, 3] [nM]	EC50 [2, 4] [nM]	also measured
COc1cnc(O[C@@H]2C[C@H]3C(=O)N[C@]4(C(=O)NS(=O)(=O)C5(C)CC5)C[C@H]4/C=C\CC[C@H](C)C[C@@H](C)[C@H](NC(=O)OC(C)(C)C)C(=O)N3C2)c2ccccc12 [Compound 4058, tert-butyl (2R,6S,7R,9S,13aS,14aR,16aS,Z)-2-(4-methoxyisoquinolin-1-yloxy)-7,9-dimethyl-14a-(1-methylcyclopropylsulfonylcarbamoyl)-5,16-dioxo-1,2,3,5,6,7,8,9,10,11,13a,14,14a,15,16,16a-hexadecahydrocyclopropa[e]pyrrolo[1,2-a][1,4]diazacyclopentadecin-6-ylcarbamate]	< 5.46	< 5.46	–
[2H]C([2H])([2H])Oc1cnc(O[C@@H]2C[C@H]3C(=O)N[C@]4(C(=O)NS(=O)(=O)C5(C)CC5)C[C@H]4CCCC[C@H](C)C[C@@H](C)[C@H](NC(=O)OC(C)(C)C(F)(F)F)C(=O)N3C2)c2ccccc12 [Compound 5110, 1,1,1-trifluoro-2-methylpropan-2-yl ((2R,6S,7R,9S,13aR,14aR,16aS)-7,9-dimethyl-14a-(((1-methylcyclopropyl)sulfonyl)carbamoyl)-5,16-dioxo-2-((4-(trideuteromethoxy)isoquinolin-1-yl)oxy)octadecahydrocyclopropa[e]pyrrolo[1,2-a][1,4]diazacyclopentadecin-6-yl)carbamate]	4.82 to 103	< 5.46	–
CCOc1cnc(O[C@@H]2C[C@H]3C(=O)N[C@]4(C(=O)NS(=O)(=O)C5(C)CC5)C[C@H]4/C=C\CC[C@@H](C)C[C@@H](CC)[C@H](NC(=O)OC(C)(C)C(F)(F)F)C(=O)N3C2)c2ccccc12 [Compound 4202, 1,1,1-trifluoro-2-methylpropan-2-yl (2R,6S,7R,9R,13aS,14aR,16aS,Z)-2-(4-ethoxyisoquinolin-1-yloxy)-7-ethyl-9-methyl-14a-(1-methylcyclopropylsulfonylcarbamoyl)-5,16-dioxo-1,2,3,5,6,7,8,9,10,11,13a,14,14a,15,16,16a-hexadecahydrocyclopropa[e]pyrrolo[1,2-a][1,4]diazacyclopentadecin-6-ylcarbamate]	< 5.46	< 5.46	–
COc1ccc2c(O[C@@H]3C[C@H]4C(=O)N[C@]5(C(=O)NS(=O)(=O)C6(CF)CC6)C[C@H]5/C=C\CC[C@H](C)C[C@@H](C)[C@H](NC(=O)OC(C)(C)C(F)(F)F)C(=O)N4C3)nc(N(C)C)cc2c1 [Compound 3126, 1,1,1-trifluoro-2-methylpropan-2-yl ((2R,6S,7R,9S,13aS,14aR,16aS,Z)-2-((3-(dimethylamino)-6-methoxyisoquinolin-1-yl)oxy)-14a-(((1-(fluoromethyl)cyclopropyl)sulfonyl)carbamoyl)-7,9-dimethyl-5,16-dioxo-1,2,3,5,6,7,8,9,10,11,13a,14,14a,15,16,16a-hexadecahydrocyclopropa[e]pyrrolo[1,2-a][1,4]diazacyclopentadecin-6-yl)carbamate]	–	–	EC50 ([1]; HCV genotype 1a replicon luciferase reporter, range class): 4.82 to 103 nM; EC50 ([2]; HCV genotype 1b replicon luciferase reporter, range class): 4.82 to 103 nM
COc1ccc2c(O[C@@H]3C[C@H]4C(=O)N[C@]5(C(=O)NS(=O)(=O)C6(C)CC6)C[C@H]5/C=C\CC[C@H](C)C[C@@H](C)[C@H](NC(=O)O[C@@H]5C[C@@H]6C[C@@H]6C5)C(=O)N4C3)nc(-c3ccc(OC(C)C)nc3)cc2c1 [Compound 5228, (1R,3r,5S)-bicyclo[3.1.0]hexan-3-yl ((2R,6S,7R,9S,13aS,14aR,16aS,Z)-2-((3-(6-isopropoxypyridin-3-yl)-6-methoxyisoquinolin-1-yl)oxy)-7,9-dimethyl-14a-(((1-methylcyclopropyl)sulfonyl)carbamoyl)-5,16-dioxo-1,2,3,5,6,7,8,9,10,11,13a,14,14a,15,16,16a-hexadecahydrocyclopropa[e]pyrrolo[1,2-a][1,4]diazacyclopentadecin-6-yl)carbamate]	–	–	EC50 [1, 5]: 4.82 to 103 nM; EC50 [2, 6]: < 5.46 nM
[2H]C([2H])([2H])C(C)(OC(=O)N[C@@H]1C(=O)N2C[C@H](Oc3nccc4cc(OC)ccc34)C[C@H]2C(=O)N[C@]2(C(=O)NS(=O)(=O)C3(C)CC3)C[C@H]2/C=C\CC[C@H](C)C[C@H]1C)C([2H])([2H])[2H] [Compound 5176, 1,1,1,3,3,3-hexadeutero-2-methylpropan-2-yl ((2R,6S,7R,9S,13aS,14aR,16aS,Z)-2-((6-methoxyisoquinolin-1-yl)oxy)-7,9-dimethyl-14a-(((1-methylcyclopropyl)sulfonyl)carbamoyl)-5,16-dioxo-1,2,3,5,6,7,8,9,10,11,13a,14,14a,15,16,16a-hexadecahydrocyclopropa[e]pyrrolo[1,2-a][1,4]diazacyclopentadecin-6-yl)carbamate]	–	–	EC50 [1, 5]: 4.82 to 103 nM; EC50 [2, 6]: < 5.46 nM
CC[C@@H]1C[C@H](C)CC/C=C\[C@@H]2C[C@@]2(C(=O)NS(=O)(=O)C2(C)CC2)NC(=O)[C@@H]2C[C@@H](Oc3nccc4cc(OC)ccc34)CN2C(=O)[C@H]1NC(=O)OC(C)(C)C [Compound 4203, tert-butyl (2R,6S,7R,9R,13aS,14aR,16aS,Z)-7-ethyl-2-(6-methoxyisoquinolin-1-yloxy)-9-methyl-14a-(1-methylcyclopropylsulfonylcarbamoyl)-5,16-dioxo-1,2,3,5,6,7,8,9,10,11,13a,14,14a,15,16,16a-hexadecahydrocyclopropa[e]pyrrolo[1,2-a][1,4]diazacyclopentadecin-6-ylcarbamate]	< 5.46	< 5.46	–
C[C@@H]1CC/C=C\[C@@H]2C[C@@]2(C(=O)NS(=O)(=O)C2CC2)NC(=O)[C@@H]2C[C@@H](Oc3ncc(OCC4CC4)c4ccccc34)CN2C(=O)[C@@H](NC(=O)OC(C)(C)C(F)(F)F)[C@H](C)C1 [Compound 4030, 1,1,1-trifluoro-2-methylpropan-2-yl (2R,6S,7R,9R,13aS,14aR,16aS,Z)-2-(4-(cyclopropylmethoxy)isoquinolin-1-yloxy)-14a-(cyclopropylsulfonylcarbamoyl)-7,9-dimethyl-5,16-dioxo-1,2,3,5,6,7,8,9,10,11,13a,14,14a,15,16,16a-hexadecahydrocyclopropa[e]pyrrolo[1,2-a][1,4]diazacyclopentadecin-6-ylcarbamate]	< 5.46	< 5.46	–
COc1ccc2c(O[C@@H]3C[C@H]4C(=O)N[C@]5(C(=O)NS(=O)(=O)C6(CF)CC6)C[C@H]5/C=C\CC[C@@H](C)C[C@@H](C)[C@H](NC(=O)OC(C)(C)C(F)(F)F)C(=O)N4C3)cc(Cl)nc2c1 [Compound 4199, 1,1,1-trifluoro-2-methylpropan-2-yl (2R,6S,7R,9R,13aS,14aR,16aS,Z)-2-(2-chloro-7-methoxyquinolin-4-yloxy)-14a-(1-(fluoromethyl)cyclopropylsulfonylcarbamoyl)-7,9-dimethyl-5,16-dioxo-1,2,3,5,6,7,8,9,10,11,13a,14,14a,15,16,16a-hexadecahydrocyclopropa[e]pyrrolo[1,2-a][1,4]diazacyclopentadecin-6-ylcarbamate]	< 5.46	< 5.46	–
COc1ccc2c(O[C@@H]3CC4C(=O)N[C@]5(C(=O)NS(=O)(=O)C6(F)CC6)C[C@H]5/C=C\CC[C@@H](C)C[C@@H](C)[C@H](NC(=O)C(C)(C)C)C(=O)N4C3)nccc2c1 (some centres unmarked) [Compound 4015]	< 5.46	< 5.46	–
CCOc1ccc2c(O[C@@H]3C[C@H]4C(=O)N[C@]5(C(=O)NS(=O)(=O)C6(C)CC6)C[C@H]5/C=C\CC[C@H](C)C[C@@H](C)[C@H](NC(=O)O[C@@H]5C[C@@H]6C[C@@H]6C5)C(=O)N4C3)nccc2c1 [Compound 5137, (1R,3r,5S)-bicyclo[3.1.0]hexan-3-yl ((2R,6S,7R,9S,13aS,14aR,16aS,Z)-2-((6-ethoxyisoquinolin-1-yl)oxy)-7,9-dimethyl-14a-(((1-methylcyclopropyl)sulfonyl)carbamoyl)-5,16-dioxo-1,2,3,5,6,7,8,9,10,11,13a,14,14a,15,16,16a-hexadecahydrocyclopropa[e]pyrrolo[1,2-a][1,4]diazacyclopentadecin-6-yl)carbamate]	< 5.46	< 5.46	–
COc1ccc2c(O[C@@H]3C[C@H]4C(=O)N[C@]5(C(=O)NS(=O)(=O)C6CC6)C[C@H]5/C=C\CC[C@H](C)C[C@@H](C)[C@H](NC(=O)O[C@@H]5C[C@@H]6C[C@@H]6C5)C(=O)N4C3)nc(-c3ccc(OC(C)C)cn3)cc2c1 [Compound 5208, (1R,3r,5S)-bicyclo[3.1.0]hexan-3-yl ((2R,6S,7R,9S,13aS,14aR,16aS,Z)-14a-((cyclopropylsulfonyl)carbamoyl)-2-((3-(5-isopropoxypyridin-2-yl)-6-methoxyisoquinolin-1-yl)oxy)-7,9-dimethyl-5,16-dioxo-1,2,3,5,6,7,8,9,10,11,13a,14,14a,15,16,16a-hexadecahydrocyclopropa[e]pyrrolo[1,2-a][1,4]diazacyclopentadecin-6-yl)carbamate]	–	–	EC50 [1, 5]: < 5.46 nM; EC50 [2, 6]: < 5.46 nM
CCOc1ccc2c(O[C@@H]3C[C@H]4C(=O)N[C@]5(C(=O)NS(=O)(=O)C6CC6)C[C@H]5/C=C\CC[C@H](C)C[C@@H](C)[C@H](NC(=O)OC(C)(C)C(F)(F)F)C(=O)N4C3)nccc2c1 [Compound 5129, 1,1,1-trifluoro-2-methylpropan-2-yl ((2R,6S,7R,9S,13aS,14aR,16aS,Z)-14a-((cyclopropylsulfonyl)carbamoyl)-2-((6-ethoxyisoquinolin-1-yl)oxy)-7,9-dimethyl-5,16-dioxo-1,2,3,5,6,7,8,9,10,11,13a,14,14a,15,16,16a-hexadecahydrocyclopropa[e]pyrrolo[1,2-a][1,4]diazacyclopentadecin-6-yl)carbamate]	4.82 to 103	< 5.46	–
